# Tests used:
# STAT5* [1] = experiment: QD probe assay for STAT5* in whole tumor cells; format: cell-based; conditions: tumor cells treated with Gleevec vs control (untreated) tumor cells, FIGS. 9A-9B
# Excerpt: Briefly; control tumor cells and tumor cells treated with Gleevec™ were processed (fixing, permeabilization, blocking, washing, etc.) to specifically bind optimized concentrations of QD-anti-STAT5* antibody probes to STAT5* protein kinase. After washing, the cells were imaged in multiple slices using the imaging techniques described above, covering the entire 3D space of the cells. QD probe bound to the cells was then compiled and projected on the cell for quantification.
# STAT5* [2] = experiment: QD-STAT5* / QD-pSTAT5 probe assay in K562 CML cells; format: cell-based; conditions: clonal K562 CML cells, FIG. 11A
# Excerpt: Relative amounts of bound QD probes in each condition were estimated using the algorithms described above.
# An epifluorescent microscope was used to acquire images of cells labeled with QD-pCRKL and QD-pSTAT5 probes, including are digital images of tumor cells (FIG. 10A), tumor cells treated with dasatinib (FIG. 10B), and control cells with antibody omitted (FIG. 10C), Average phosphoprotein levels were computed as the average number of QD probes/cell.
smiles,measurement,setting,value
"Cc1ccc(NC(=O)c2ccc(CN3CCN(C)CC3)cc2)cc1Nc1nccc(-c2cccnc2)n1 [Gleevec™, imatinib]",STAT5* activation (QD-anti-STAT5* probe binding),STAT5* [1],marked decrease in STAT5* activation
CC[C@H](C)C(=O)O[C@H]1C[C@@H](C)C=C2C=C[C@H](C)[C@H](CC[C@@H]3C[C@@H](O)CC(=O)O3)[C@H]21 [lovastatin],heterogeneity in pSTAT5 activity (SD of QDs/cell),STAT5* [2],reduced
